Source: patent publication US10976310B2, “Ligand identification by co-fractionation” (MAX-PLANCK-GESELLSCHAFT ZUR FÖRDERUNG DER WISSENSCHAFTEN …, priority 2016, dated 2021)
“And” between values parts separate entries of the source, which are not always exact repeats. Equal values may be shown once.

What was measured:
Rbp47b-TAP protein = molecular target: T1, Rbp47b-TAP protein (Arabidopsis thaliana, UniProt Q0WW84); assay: Cellular thermal shift assay (CETSA) in native Arabidopsis lysate; format: binding; conditions: read-out: change of Rbp47b melting temperature (thermal destabilization)
T1 construct: expressed in transfected cells; host or cells: Arabidopsis cell suspension culture, Agrobacterium-transformed
T1 sequence (Q0WW84 1-435): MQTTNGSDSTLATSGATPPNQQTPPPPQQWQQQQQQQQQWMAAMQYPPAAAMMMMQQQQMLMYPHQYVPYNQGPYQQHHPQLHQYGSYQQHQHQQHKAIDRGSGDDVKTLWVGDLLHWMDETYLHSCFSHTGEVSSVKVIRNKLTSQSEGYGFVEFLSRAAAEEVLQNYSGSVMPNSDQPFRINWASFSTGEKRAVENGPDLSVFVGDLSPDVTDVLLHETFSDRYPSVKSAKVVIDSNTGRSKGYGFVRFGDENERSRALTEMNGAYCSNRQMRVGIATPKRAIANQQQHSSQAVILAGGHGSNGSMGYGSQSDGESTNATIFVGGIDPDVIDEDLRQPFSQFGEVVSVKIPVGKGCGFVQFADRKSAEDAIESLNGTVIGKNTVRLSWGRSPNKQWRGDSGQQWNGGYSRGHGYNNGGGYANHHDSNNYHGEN
Protocol: To this end we set out to identify the binding protein partners of 2′,3′-cAMP by applying affinity purification (AP) using agarose beads, with 2′,3′-cAMP linked via the NH2 group of the purine ring. After incubation of the beads with total soluble-protein extracts from A. thaliana cell suspension cultures (cf. Materials and Methods) sequential washings with ADP, GDP, 5′-AMP, and finally 2′,3′-cAMP were performed, and the proteins eluting in the different washings were analyzed by LC-MS/MS proteomics. Proteins eluting from the agarose beads exclusively with 2′,3′-cAMP but absent in any of the other eluents (ADP, GDP, or 5′-AMP; FIG. 10A) were defined as 2′,3′-cAMP-binding. Applying this stringent criterion only one protein remained: the polyadenylate-binding protein Rbp47b. We reasoned that the putative formation of Rbp47b-2′,3′-cAMP complexes in vivo should be reflected by largely overlapping elution profiles of the two components in a size-exclusion experiment (SEC), as was indeed the case (FIG. 10B). To obtain further and independent evidence for the formation of a complex between Rbp47b and 2′,3′-cAMP, we performed a cellular thermal shift assay (CETSA) (Franken et al. (2015) Thermal proteome profiling for unbiased identification of direct and indirect drug targets using multiplexed quantitative mass spectrometry. Nat Protoc 10: 1567-1593). CESTA is a method used in the drug research to verify ligand-receptor binding in the native cellular lysate, based on the observation that presence of the ligand changes thermal stability of the protein receptor. Herein, we adapted the protocol to be suitable for the plant material and an endogenous […] metabolite. We used Arabidopsis cells expressing a tagged version of the Rbp47b, so that Rbp47b level could be easily detected with the anti-tag antibody. […] Taken together, three independent experimental approaches (AP, SEC, and CETSA) provide evidence for the binding of 2′,3′-cAMP to Rbp47b in the native Arabidopsis lysate. […]

TIA1 self-assembly = molecular target: T2, TIA1 self-assembly (Homo sapiens, UniProt P31483); assay: MST measurement of TIA1 self-assembly; format: binding; conditions: 500 μM 2′,3′-cAMP; in its absence Kd=36.28 nM (36 nM); read-out: Kd of TIA1 self-assembly in the presence of the ligand
T2 construct: purchased Origene (Herford, Germany)
T2 sequence (P31483 1-386): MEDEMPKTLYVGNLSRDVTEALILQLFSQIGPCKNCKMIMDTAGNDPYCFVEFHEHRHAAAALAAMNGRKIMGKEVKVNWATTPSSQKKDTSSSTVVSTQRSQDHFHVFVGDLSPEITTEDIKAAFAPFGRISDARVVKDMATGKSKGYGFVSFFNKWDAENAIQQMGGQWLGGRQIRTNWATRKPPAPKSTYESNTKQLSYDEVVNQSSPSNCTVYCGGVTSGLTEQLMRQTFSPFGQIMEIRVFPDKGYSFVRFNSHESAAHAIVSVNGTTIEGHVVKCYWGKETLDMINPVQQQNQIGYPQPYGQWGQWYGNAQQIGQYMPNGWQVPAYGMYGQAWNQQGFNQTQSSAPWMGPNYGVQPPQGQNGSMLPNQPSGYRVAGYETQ
Protocol: Expecting such a basic role of 2′,3′-cAMP to be conserved, we performed similar analysis with TIA1, the human functional homolog of Rbp47b. TIA1 was labeled and its interaction with 2′,3′-cAMP was determined using MST.
MST measurements were performed using a Monolith NT.115 instrument (NanoTemper, München, Germany). Capillaries were loaded into the instrument as sets of 13-16 point ligand titrations. Proteins (Rb47b and TIA1) were labeled in phosphate buffer (PBS) using Monolith™ protein labeling kit RED-NHS (amine reactive; MO-L001) according to the manufacturers instruction. Excitation was optimized by varying the LED power to yield emission intensities above 200 AU, corresponding to 10-50 nM labeled protein. Monolith power was set to 60%. Ligands [2′,3′-cAMP (Sigma A9376)] and [3′,5′-cAMP (Sigma A6885)] were dissolved in PBS. 0.5% Tween and premium coated capillaries were used to prevent sticking. Non-labeled TIA1 and Rbp47b were used as ligands in the self-assembly experiments. MO Affinity Analysis software was used to analyze (Kd calculation) and visualize the data. Presented data are from 2-3 technical replicates.

`Nc1ncnc2c1ncn2[C@@H]1O[C@H](CO)[C@H]2OP(=O)(O)O[C@H]21` [2′,3′-cAMP] was tested, and the ΔTm at 10 µM (Rbp47b-TAP protein) was 2.4 °C, the ΔTm at 100 µM (Rbp47b-TAP protein) was 5.1 °C and the Kd (TIA1 self-assembly) was 20.6 nM and 20 nM.
